# Data published in patent US20240173401A1, “Compositions and Methods to Enhance Therapeutic Efficacy of Cancer Therapies” (Wisconsin Alumni Research Foundation, priority 2022, published 2024).
# Columns and labels:
# [1] = system: B78 melanoma; experiment: Tumor cytokine multiplex immunoassay; type: in vivo, mouse; settings: tumor lysate, day 15
# Experimental: At day 15, tumors were harvested and weighed. Tumor samples (5 μL/mg) were lysed in 20% Cell Lysis Buffer with PMSF (Cell Signaling Technology) and supplemented with Halt Protease and Phosphatase Inhibitor Cocktail (Thermo Scientific). Each tumor was homogenized in bead beater tubes, and the lysate was stored at −80° C. The concentration of 32 cytokines and chemokines in the tumor lysates (MILLIPLEX MAP Mouse Cytokine/Chemokine Magnetic Bead Panel, Millipore) were determined by a multiplex immunoassay following manufacturer's instructions. The MAGPIX System (Millipore) was used to read the multiplex plate. Concentrations were determined using a standard curve and their respective median fluorescence intensity (MFI) readings (Milliplex Analyst, Millipore). The data underwent log and […] transformation followed by unbiased hierarchical clustering.
# We next profiled the cytokine repertoire within the irradiated tumor immune microenvironment following MPL treatment, focusing on TLR4 activation, Th polarization, and macrophage polarization given our tumor immune cell infiltration findings.
# [2] = system: bone marrow derived macrophages; experiment: Bone marrow derived macrophage monoculture, qPCR of polarization and activation markers; type: cell-based, mouse; settings: for Arg1 and Nos2 expression: MPL 100 ng/mL
# Experimental: Macrophages were isolated from freshly harvested bone marrow as previously described (95-97). Briefly, isolated tibias were flushed with RMPI media and flowthrough was collected and centrifuged. The cell pellet was resuspended in RBC lysis buffer (Biolegend Cat #420302) and filtered (70 μM). Filtered cells were plated in non-tissue culture treated plates in Minimum Essential Medium Eagle-Alpha Modification (Alpha MEM) with Nucleosides supplemented with 10% FBS and 30 ng/mL M-CSF (Biolegend Cat #576408). After 24 hours, the culture supernatant containing macrophages was harvested and plated in tissue culture treated plates in Alpha MEM supplemented with 10% FBS and 120 ng/mL M-CSF.
# To determine direct effects of MPL on macrophages, CD4, and CD8 T cells, freshly isolated cells were cultured in 6-well plates containing Alpha MEM media (supplemented with 120 ng/mL M-CSF in the case of macrophages) in the presence of increasing amounts of MPL (5, 20, 100, and 500 ng/mL). After 24 hours cells were harvested, and RNA was isolated for analysis via qPCR.
# Cells treated in vitro with MPL, RT, or the combination were washed with cold PBS, TRIzol™ reagent (ThermoFisher Scientific Cat #15596026) was added to the plate, and the cells were collected via scraping over ice. For analysis of tumor tissue, tumors were harvested, and samples were homogenized in TRIzol using a Bead Mill Homogenizer (Bead Ruptor Elite, Omni International Cat #19-040E). For in vitro and in vivo samples, total RNA was extracted using RNeasy Mini Kit (QIAGEN, Germany, Cat #74106) according to the manufacturer's instructions. Extracted RNA was subjected to complementary cDNA synthesis using QuantiTect Reverse Transcription Kit (QIAGEN, Germany, Cat #205314) according to the manufacturer's instructions. Quantitative polymerase chain reaction (qRT-PCR) was performed using Taqman Fast Advanced qPCR Master Mix. Thermal cycling conditions (Quantstudio 6, Applied Biosystems) included the UDG activation at 50° C. for 2 min, followed by Dual-Lock™ DNA polymerase activation stage at 95SC for 2 m followed by 40 cycles of each PCR step (denaturation) 95° C. for is and (annealing/extension) 60° C. for 20s. A melt curve analysis was done to ensure specificity of the corresponding qRT-PCR reactions. For data analysis, the Ct values were exported to an Excel file, and fold change normalized to untreated control samples was calculated using the ΔΔCt method. Hprt, was used as endogenous controls. A complete list of Taqman probes is included as Table 1.
# We cultured bone marrow derived macrophages in the presence of increasing amounts of MPL and using qPCR quantified the expression of Arg1 and Nos2, markers of M2 and M1 macrophages, respectively (59).
# Macrophages are one of the least sensitive immune cell populations to radiation induced cell death (62). Tumor-associated macrophage populations that receive radiation in this regimen likely survive and are subsequently exposed to MPL delivered intratumorally as part of our treatment strategy. To test whether RT can synergize with MPL to further increase activation of macrophages, we delivered 12 Gy of RT to macrophages in culture and immediately replaced the growth media with fresh media containing 100 ng/mL of MPL, and 24 hours later harvested cells for analysis.
# [3] = system: CD4 and CD8 T cells; experiment: CD4 and CD8 T cell monoculture with MPL, qPCR; type: cell-based, mouse; settings: MPL 5-500 ng/mL, 24 hours
# Experimental: CD4 and CD8 T cells were isolated from freshly harvested spleens of naïve mice. Spleens were homogenized, filtered (70 μM), and centrifuged. The cell pellet was resuspended in RBC lysis buffer and filtered (70 μM). CD4 and CD8 cells were sorted from total splenocytes using MACS column sorting (Miltenyi Biotec CD8a Cat #130-104-075, CD4 Cat #130-104-454) per manufacturer's instructions.
# To determine direct effects of MPL on macrophages, CD4, and CD8 T cells, freshly isolated cells were cultured in 6-well plates containing Alpha MEM media (supplemented with 120 ng/mL M-CSF in the case of macrophages) in the presence of increasing amounts of MPL (5, 20, 100, and 500 ng/mL). […]
# (§1) Cells treated in vitro with MPL, RT, or the combination were washed with cold PBS, TRIzol™ reagent (ThermoFisher Scientific Cat #15596026) was added to the plate, and the cells were collected via scraping over ice. […] Extracted RNA was subjected to complementary cDNA synthesis using QuantiTect Reverse Transcription Kit (QIAGEN, Germany, Cat #205314) according to the manufacturer's instructions. Quantitative polymerase chain reaction (qRT-PCR) was performed using Taqman Fast Advanced qPCR Master Mix. […] For data analysis, the Ct values were exported to an Excel file, and fold change normalized to untreated control samples was calculated using the ΔΔCt method. […]
# [4] = system: CD4 and CD8 T cells; experiment: Co-culture of MPL stimulated macrophages with CD4 and/or CD8 T cells, flow cytometry; type: cell-based, mouse
# Experimental: Bone marrow derived macrophages were plated in 12 well plates (200,000 cells per well) containing Alpha MEM supplemented with 120 ng/mL M-CSF and treated with either 100 ng/mL MPL or PBS control. After 24 hours either CD4, CD8 or both were added (500,000 cells per well) to the culture. CD4 and CD8 cells were harvested 24 hours later and analyzed for activation markers using flow cytometry.
# Flow cytometry was performed as previously described (65), using fluorescent beads (UltraComp Beads eBeads, 176 Invitrogen, #01-2222-42) to determine compensation and fluorescence minus one (FMO) methodology to determine gating. For in vivo analysis, tumors and tumor draining lymph nodes were harvested and gently dissociated. For in vitro analysis, nonadherent CD4 and CD8 cells were collected from culture plates and washed with PBS twice. In either case total cells were treated CD16/32 antibody (BioLegend) to prevent non-specific binding. Live cell staining was performed using Ghost Red Dye 780 (Tonbo Biosciences) according to manufacturer's instruction. After live-dead staining, a single cell suspension was labeled with the surface antibodies at 4° C. for 60 min and washed three times using flow buffer (2% FBS+2 mM EDTA in PBS). For intracellular staining, the cells were fixed and stained for internal markers with permeabilization solution according to manufacturer's instructions (BD Cytofix/Cytoperm™). Flow cytometry was performed using an Attune NxT Flow Cytometer (ThermoFisher). Data was analyzed using FlowJo Software.
# We hypothesized that MPL may favorably polarize and activate T cells through direct activation of macrophages. To test this, we co-cultured CD8 cells with macrophages stimulated with MPL or vehicle control (PBS) and quantified CD69 expression as a marker of activation. […] To investigate CD4 polarization we co-cultured CD4 cells with macrophages stimulated with MPL or PBS. […] This may partially explain the loss of CD69 expression in CD8 T cells when CD4 T cells were added to the co-culture. We observed similar trends in CXCR3 and CXCR4 expression on CD4+cells, as well as increase in regulatory T cell percentage when CD8 T cells were added to the co-culture (FIGS. 4M-40).
# [5] = system: bone marrow derived macrophages; experiment: Co-culture of macrophages with tumor cells with or without serum, qPCR; type: cell-based, mouse; settings: MPL 100 ng/mL
# Experimental: For co-culture with tumor cells, bone marrow derived macrophages (harvested from wild type or Fcγ receptor deficient C57BL/6 mice) were plated in 6 well plates (500,000 cells per well) containing Alpha MEM supplemented with 120 ng/mL M-CSF and treated with either 100 ng/ML MPL or PBS control. After 24 hours either B78 melanoma or Myc-CaP cells were added (200,000 cells per well). To test whether serum derived anti-tumor antibodies can activate macrophages, 5 μL of serum obtained from mice bearing B78 tumors rendered disease free was also added to the co-culture. After 24 hours cells were harvested and analyzed for polarization and activation markers using qPCR.
# as §1
# [6] = system: B cells; experiment: B cells cultured in vitro, activation markers by qPCR; type: cell-based, mouse
# Experimental: FIGS. 6A-6F. Radiation downregulates TLR4 expression on macrophages and MHC-IT expression on B16 tumor cells and cytotoxic CD4 cells are not generated by combination therapy but B cells are modestly activated with radiation but not MPL or serum. Macrophages cultured in vitro were treated with PBS, anti-CTLA-4 (C4, 5 μg), radiation (RT, 12 Gy) or RT+C4 and expression of TLR4 was quantified using flow cytometry 24 hours following treatment (6A). B16 melanoma cells cultured in vitro were treated with PBS or radiation (RT, 12 Gy) and expression of MHC-II was quantified using flow cytometry 3 days following treatment (6B). B16 tumors were treated with PBS or RT+C4+MPL and expression of MHC-II was quantified using flow cytometry 15 days following treatment (6C). CD4 cells were also harvested and co-cultured with B16 cells that had received either 0 Gy or 12 Gy of RT 7 days prior to coculture and tumor cell killing was quantified using Annexin V staining (6D). B cells cultured in vitro were treated with either PBS, MPL (100 μg), serum from disease free mice, or MPL+serum and activation markers were quantified using qPCR (6E). B cells cultured in vitro were treated with either PBS, C4 (5 μg), RT (12 Gy), or RT+C4 and activation markers were quantified using qPCR (6F). […]
# [7] = system: B78 melanoma; experiment: B78 melanoma flank tumor model (tumor growth, survival, complete response, rechallenge); settings: RT 12 Gy day 1, C4 200 μg IP days 3, 6, 9, MPL 20 μg IT days 5, 7, 9
# Experimental: Tumor bearing mice received either RT (12 Gy, day 1), RT+anti-CTLA4 (C4, day 3, 6, 9), MPL (20 μg IT injection days 5, 7, 9), RT+C4+MPL, or PBS control.
# For our studies, tumors were established intradermally in mice, external beam radiation was delivered, PBS or anti-CTLA-4 were injected intraperitoneally, PBS or MPL were injected intratumorally, and tumor growth and overall survival were recorded. Serum was collected and analyzed for the presence and characterization of anti-tumor antibodies, and the tumor and tumor draining lymph node were collected for immune infiltrate analysis. Mice were randomized to experimental groups/treatment the day before treatment initiation. Generally, experimental groups consisted of at least 5-6 mice, but in some experiments up to 10 were used.
# Mice were housed and treated under a protocol (protocol number M005670) approved by the Institutional Animal Care and Use Committee (IACUC) at the University of Wisconsin-Madison. Female C57BL/6, FcγR −/− (FcγR deficient C57BL/6.129P2-Fcer1gtm1Rav N12), and male FVBn mice were purchased at age 6 to 8 weeks from Taconic. Female TBET −/− (B6.129S6-Tbx21tm1Glm/J strain #:004648) were purchased from The Jackson Laboratory. […] Tumor size was determined using calipers and volume approximated as (width2×length)/2. […]
# [8] = CD4 co-cultured with MPL stimulated macrophages
substance,measurement,setting,value
monophosphoryl lipid A [MPL],"Macrophage Inflammatory Protein 2 (MIP2, CXCL2)",[1],significant increases
same,"keratinocytes-derived chemokine (KC, CXCL1)",[1],significant increases
same,Fcγ receptor expression,"[2]; 12 Gy RT then 100 ng/mL MPL, 24 hours, addition of radiation to the MPL",further increased expression of these Fcγ receptors
same,expression of Ifnβ1 and Nos2,"[2]; 12 Gy RT then 100 ng/mL MPL, 24 hours, compared to MPL treatment alone",further increased
same,Arg1 and Nos2 expression,[2]; FcγR −/− macrophages in monoculture,significant increases in Arg1 and Nos2 expression
same,Nos2 expression relative to Arg1,[2]; at the 100 and 200 ng/ml doses,significantly greater expression of Nos2 than Arg1
same,Arg1 and Nos2 expression (qPCR),"[2]; increasing amounts of MPL (5, 20, 100, 500 ng/mL), 24 hours",dose dependent increases in both Arg1 and Nos2
same,pro-inflammatory compared to anti-inflammatory cytokine expression,"[2]; increasing amounts of MPL, 24 hours",favoring expression of pro-inflammatory cytokines
same,Arg1 and Nos2 expression,"[2]; wild type macrophages in monoculture, 24 hours",significant increases in Arg1 and Nos2 expression
same,Cxcr3 and Cxcr4 expression in naïve splenic CD4 T cells,[3],minimal changes
same,expression of pro-inflammatory cytokines in CD4 and CD8 cells,[3],minimal increases
same,CXCR3 expression in CD4 cells,[4]; [8],significant increase
same,CXCR4 expression in CD4 cells,[4]; [8],decrease
same,percentage of regulatory T cells (CD4+CD25+FOXP3+),[4]; [8],significant increase
same,CD69 expression on CD8 T cells,"[4]; CD8 co-cultured with macrophages stimulated with 100 ng/mL MPL, vs monoculture or unstimulated macrophages",significantly increased
same,CD69 expression on CD8 cells,"[4]; MPL stimulated macrophages, CD4 cells added to the culture",no longer observed an increase
same,Arg1 and Nos2 expression,[5]; FcγR −/− macrophages co-cultured with B78 cells,significant increase in expression of Nos2 but not Arg1
same,Arg1 and Nos2 expression,[5]; wild type macrophages co-cultured with B78 cells,significant increase in expression of Nos2 but not Arg1
same,B cell activation,[6],no increase in B cell activation
same,median survival,[7],31 days
